Measured values from patent publication US11932658B2 (BRISTOL-MYERS SQUIBB COMPANY, priority 2016, dated 2024).

Molecular target: T1, PAR4 (Homo sapiens, UniProt Q96RI0)
T1 construct: expressed in transfected cells; host or cells: HEK293 PAR4 Clone 1.2A (BMS Arctic ID 383940)
T1 sequence (Q96RI0 18-385): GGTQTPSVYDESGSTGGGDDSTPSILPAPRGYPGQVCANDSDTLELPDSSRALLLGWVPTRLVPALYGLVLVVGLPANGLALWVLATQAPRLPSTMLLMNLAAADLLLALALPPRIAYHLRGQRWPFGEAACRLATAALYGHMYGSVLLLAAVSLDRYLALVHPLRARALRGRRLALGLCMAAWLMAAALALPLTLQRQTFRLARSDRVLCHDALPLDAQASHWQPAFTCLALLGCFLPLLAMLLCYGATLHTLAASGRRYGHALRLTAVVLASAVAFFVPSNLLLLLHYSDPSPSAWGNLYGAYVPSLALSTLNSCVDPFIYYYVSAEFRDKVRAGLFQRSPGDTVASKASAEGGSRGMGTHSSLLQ
Experiment: PAR4 FLIPR assay (antagonism of agonist peptide-induced calcium mobilization)
Type: cell-based
Summary of the method: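 Antagonism was taken as block of calcium mobilization evoked by the agonist peptide H-Ala-Phe(4-F)-Pro-Gly-Trp-Leu-Val-Lys-Asn-[…]-NH2, added after 30 min room-temperature compound preincubation in dye-loaded PAR4-transfected HEK293 cells (endogenous PAR1). Fluorescence was read on FDSS, with compound addition alone used as the agonist counter-screen; values come from 11-point concentration-response curves.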

Question: Which IC50 does the source give for COc1cnc2c(-c3nc4ccc5c(c4s3)C[C@@H](CNC(=O)O[C@@H]3CCOC3)O5)cc(C)cc2n1 [Example 230, (R)-tetrahydrofuran-3-yl (((S)-2-(2-methoxy-7-methylquinoxalin-5-yl)-7,8-dihydrobenzofuro[5,4-d]thiazol-7-yl)methyl)carbamate] here?
Answer: 6.4 nM

Question: COc1cnc2c(-c3nc4ccc5c(c4s3)C[C@@H](CNC(=O)OCc3cccc(C#N)c3)O5)cc(C)cc2n1 [Example 231, (S)-3-cyanobenzyl ((2-(2-methoxy-7-methylquinoxalin-5-yl)-7,8-dihydrobenzofuro[5,4-d]thiazol-7-yl)methy 1)carbamate] was tested. Which IC50 did it give?
Answer: 5.8 nM

Question: How did the IC50 turn out when COc1cnc2c(-c3nc4ccc5c(c4s3)C[C@@H](CNC(=O)OCc3cccnc3)O5)cc(C)cc2n1 [Example 232, (S)-pyridin-3-ylmethyl ((2-(2-methoxy-7-methylquinoxalin-5-yl)-7,8-dihydrobenzofuro[5,4-d]thiazol-7-yl)methy 1)carbamate] was run?
Answer: 3.3 nM

Question: How did the IC50 turn out when COc1cnc2c(-c3nc4ccc5c(c4s3)C[C@@H](CNC(=O)OCc3ccncc3)O5)cc(C)cc2n1 [Example 233, (S)-pyridin-4-ylmethyl ((2-(2-methoxy-7-methylquinoxalin-5-yl)-7,8-dihydrobenzofuro[5,4-d]thiazol-7-yl)methy 1)carbamate] was run?
Answer: 6.6 nM

Question: For COc1cnc2c(-c3nc4ccc5c(c4s3)C[C@@H](CNC(=O)OC3CCCOC3)O5)cc(C)cc2n1 (stereo partly drawn) [Example 234, Tetrahydro-2H-pyran-3-yl (((S)-2-(2-methoxy-7-methylquinoxalin-5-yl)-7,8-dihydrobenzofuro[5,4-d]thiazol-7-yl)methyl)carbamate], which IC50 is on record?
Answer: 4.3 nM

Question: Which IC50 does the source give for COc1cnc2c(-c3nc4ccc5c(c4s3)C[C@@H](CNC(=O)OCC3CCCCO3)O5)cc(C)cc2n1 (stereo partly drawn) [Example 235, (Tetrahydro-2H-pyran-2-yl)methyl (((S)-2-(2-methoxy-7-methylquinoxalin-5-yl)-7,8-dihydrobenzofuro[5,4-d]thiazol-7-yl)methyl)carbamate] here?
Answer: 4.1 nM

Question: For COc1cnc2c(-c3nc4ccc5c(c4s3)C[C@@H](CNC(=O)O[C@H]3CCOC3)O5)cc(C)cc2n1 [Example 236, (S)-tetrahydrofuran-3-yl (((S)-2-(2-methoxy-7-methylquinoxalin-5-yl)-7,8-dihydrobenzofuro[5,4-d]thiazol-7-yl)methyl)carbamate], which IC50 is on record?
Answer: 2.7 nM

Question: Which IC50 does the source give for COc1cnc2c(-c3nc4cc(F)c5c(c4s3)C[C@@](C)(COP(=O)(O)O)O5)cc(C)cc2n1 [Example 237, (S)-(5-fluoro-2-(2-methoxy-7-methylquinoxalin-5-yl)-7-methyl-7,8-dihydrobenzofuro[5,4-d]thiazol-7-yl)methyl dihydrogen phosphate] here?
Answer: 40 nM

Question: How did the IC50 turn out when COc1cnc2c(-c3nc4cc(F)c5c(c4s3)[C@H](C)[C@@H](CO)O5)cc(C)cc2n1 [Example 238, ((7S,8S)-5-fluoro-2-(2-methoxy-7-methylquinoxalin-5-yl)-8-methyl-7,8-dihydrobenzofuro[5,4-d]thiazol-7-yl)methanol] was run?
Answer: 1.3 nM

Question: With COc1cnc2c(-c3nc4cc(F)c5c(c4s3)[C@@H](C)[C@H](CO)O5)cc(C)cc2n1 [Example 239, ((7R,8R)-5-fluoro-2-(2-methoxy-7-methylquinoxalin-5-yl)-8-methyl-7,8-dihydrobenzofuro[5,4-d]thiazol-7-yl)methanol] as the compound, how does the IC50 read?
Answer: 49 nM

Question: Which IC50 does the source give for COC(=O)NC[C@]1(C)Cc2c(c(F)cc3nc(-c4cc(C)cc5nc(OC)cnc45)sc23)O1 [Example 240, (S)-methyl ((5-fluoro-2-(2-methoxy-7-methylquinoxalin-5-yl)-7-methyl-7,8-dihydrobenzofuro[5,4-d]thiazol-7-yl)methyl)carbamate] here?
Answer: 32 nM

Question: How did the IC50 turn out when COc1cnc2c(-c3nc4cc(F)c5c(c4s3)C[C@@](C)(CNC(=O)OCC(C)C)O5)cc(C)cc2n1 [Example 241, (S)-isobutyl ((5-fluoro-2-(2-methoxy-7-methylquinoxalin-5-yl)-7-methyl-7,8-dihydrobenzofuro[5,4-d]thiazol-7-yl)methyl)carbamate] was run?
Answer: 8.6 nM

Question: How did the IC50 turn out when COc1cnc2c(-c3nc4cc(F)c5c(c4s3)C[C@@](C)(CNC(=O)OC(C)(C)C)O5)cc(C)cc2n1 [Example 242, (S)-tert-butyl ((5-fluoro-2-(2-methoxy-7-methylquinoxalin-5-yl)-7-methyl-7,8-dihydrobenzofuro[5,4-d]thiazol-7-yl)methyl)carbamate] was run?
Answer: 9.3 nM

Question: How did the IC50 turn out when COc1cnc2c(-c3nc4ccc5c(c4s3)C[C@@H](CNC(=O)OC(C)(C)C)O5)cc(C)cc2n1 [Example 244, (S)-tert-butyl ((2-(2-methoxy-7-methylquinoxalin-5-yl)-7,8-dihydrobenzofuro[5,4-d]thiazol-7-yl)methyl)carbamate] was run?
Answer: 100 nM

Question: For COc1cnc2c(-c3nc4cc(F)c5c(c4s3)C[C@@H](CNC(=O)OC3CCOCC3)O5)cc(C)cc2n1 [Example 245, (S)-tetrahydro-2H-pyran-4-yl ((5-fluoro-2-(2-methoxy-7-methylquinoxalin-5-yl)-7,8-dihydrobenzofuro[5,4-d]thiazol-7-yl)methyl)carbamate], which IC50 is on record?
Answer: 24 nM

Question: For COc1cnc2c(-c3nc4cc(F)c5c(c4s3)C[C@@H](CNC(=O)OCC(C)C)O5)cc(C)cc2n1 [Example 246, (S)-isobutyl ((5-fluoro-2-(2-methoxy-7-methylquinoxalin-5-yl)-7,8-dihydrobenzofuro[5,4-d]thiazol-7-yl)methyl)carbamate], which IC50 is on record?
Answer: 5 nM

Question: Which IC50 does the source give for COc1cnc2c(-c3nc4cc(F)c5c(c4s3)C[C@@H](CNC(=O)OCCF)O5)cc(C)cc2n1 [Example 247, (S)-2-fluoroethyl ((5-fluoro-2-(2-methoxy-7-methylquinoxalin-5-yl)-7,8-dihydrobenzofuro[5,4-d]thiazol-7-yl)methyl)carbamate] here?
Answer: 0.7 nM

Question: Which IC50 does the source give for COc1cnc2c(-c3nc4cc(F)c5c(c4s3)C[C@@H](CNC(=O)Nc3ccccc3)O5)cc(C)cc2n1 [Example 248, (S)-1-((5-fluoro-2-(2-methoxy-7-methylquinoxalin-5-yl)-7,8-dihydrobenzofuro[5,4-d]thiazol-7-yl)methyl)-3-phenylurea] here?
Answer: 7 nM

Question: With COc1cnc2c(-c3nc4cc(F)c5c(c4s3)C[C@@H](CNC(=O)OCC(F)(F)F)O5)cc(C)cc2n1 [Example 249, (S)-2,2,2-trifluoroethyl ((5-fluoro-2-(2-methoxy-7-methylquinoxalin-5-yl)-7,8-dihydrobenzofuro[5,4-d]thiazol-7-yl)methyl)carbamate] as the compound, how does the IC50 read?
Answer: 1 nM

Question: COCCOC(=O)NC[C@@H]1Cc2c(c(F)cc3nc(-c4cc(C)cc5nc(OC)cnc45)sc23)O1 [Example 250, (S)-2-methoxyethyl ((5-fluoro-2-(2-methoxy-7-methylquinoxalin-5-yl)-7,8-dihydrobenzofuro[5,4-d]thiazol-7-yl)methyl)carbamate] was tested. Which IC50 did it give?
Answer: 2.3 nM

Question: Which IC50 does the source give for COc1cnc2c(-c3nc4cc(F)c5c(c4s3)C[C@](C)(COC(=O)Nc3cnc(OCCO)nc3)O5)cc(C)cc2n1 [Example 251, (R)-(5-fluoro-2-(2-methoxy-7-methylquinoxalin-5-yl)-7-methyl-7,8-dihydrobenzofuro[5,4-d]thiazol-7-yl)methyl (2-(2-hydroxyethoxy)pyrimidin-5-yl)carbamate] here?
Answer: 0.9 nM
